Experimental data published in patent US11044911B2, “Phenoxyurea compound and pest control agent” (Nippon Soda Co., Ltd., priority 2018, dated 2021).

Tests used:
Tetranychus urticae = test: Test Example 10: efficacy test against Tetranychus urticae (soil irrigation test); assay type: in vivo; conditions: 25 ml of 400 ppm, strawberry seedling, 19 days after inoculation
Experimental: (§1) 5 parts by weight of the compound of the present invention, 93.6 parts by weight of dimethylformamide and 1.4 parts by weight of polyoxyethylene alkylaryl ether were mixed and dissolved to prepare an emulsion (I) containing 5% of an active ingredient.
The emulsion (I) was diluted with tap water to prepare a drug solution having a concentration of 400 ppm. A plastic potted strawberry seedling was subjected to a plant foot irrigation treatment with 25 ml of the drug solution, and placed in a thermostatic chamber at a temperature of 25° C. and a humidity of 60%. Three days after the irrigation treatment, 15 adult females of Tetranychus urticae were inoculated on each seedling. The number of surviving insects 19 days after inoculation was investigated, and the control value was obtained by the following formula. The test was repeated twice. Control value (%)=100−{(Nt)/(Nc)×100}
The letters in the formula represent the following.
Nc: Number of surviving insects in the untreated group
Nt: Number of surviving insects in the treated group

[1] = tested on: drug-resistant strains of Tetranychus urticae; test: Test Example 13: efficacy test against drug-resistant strains of Tetranychus urticae; assay type: in vivo; conditions: 10 days
Text: as §1
(§2) Insecticidal rate (%)=(number of dead insects/number of tested insects)×100
(§3) Efficacy tests against seven drug-resistant strains of Tetranychus urticae collected from various parts of Japan (one strain from Shizuoka Prefecture, Aomori Prefecture and Fukuoka Prefecture, and two strains from Chiba Prefecture and Nagano Prefecture) were conducted in the following manner.
(§4) 8 adult females of drug-resistant strains of spider mites were inoculated on kidney bean plant leaves placed in a petri dish. Then, the emulsion (I) was diluted with water so that the concentration of the compound was 37.5 ppm or 9.4 ppm to obtain a chemical. This chemical was sprayed onto the kidney bean plant leaves with a rotary spray tower. The kidney bean plant leaves were placed in a thermostatic chamber at a temperature of 25° C. and a humidity of 65%. The life and death of the spider mite were investigated when 10 days had passed after the spraying, and the insecticidal rate was calculated.

[2] = tested on: drug-resistant strain of Panonychus citri collected in Wakayama Prefecture; test: Test Example 13: efficacy test against drug-resistant strain of Panonychus citri; assay type: in vivo; conditions: 10 days, corrected insecticidal rate
Experimental: as §1, §2
(§5) In addition, an efficacy test against a drug-resistant strain of Panonychus citri collected in Wakayama Prefecture was conducted in the following manner.
8 adult females of a drug resistant strain of Panonychus citri were inoculated on mandarin orange leaves placed in a petri dish. Then, the emulsion (I) was diluted with water so that the concentration of the compound was 37.5 ppm or 9.4 ppm to obtain a chemical. This chemical was sprayed onto the mandarin orange leaves with a rotary spray tower. The mandarin orange leaves were placed in a thermostatic chamber at a temperature of 25° C. and a humidity of 65%. The life and death of the spider mite were investigated when 10 days had passed after the spraying, and the corrected insecticidal rate was calculated.

cucumber plants = test: Test Example 14: phytotoxicity test on cucumber plants; assay type: in vivo; conditions: 300 ppm spray; for Cucumber; 1.5-leaf stage After 14 days Leaf Phytotoxicity index: index 0 (no phytotoxicity) to 10 (plant death)
Experimental: A test for phytotoxicity on cucumber plants was conducted as follows. A sufficient amount of chemical having a compound concentration of 300 ppm was sprayed onto cucumber plants at the 1.5-leaf stage using a glass nozzle, and they were left to stand in a greenhouse. The presence or absence of phytotoxicity was investigated after being left to stand for 14 days.
(§6) The symptoms of phytotoxicity were deformation and discoloration of leaves.

eggplants = test: Test Example 14: phytotoxicity test on eggplants; assay type: in vivo, eggplant; conditions: 300 ppm spray; for Eggplant; 6- to 7-leaf stage After 14 days Leaf Phytotoxicity index: index 0 (no phytotoxicity) to 10 (plant death)
Text: A sufficient amount of chemical having a compound concentration of 300 ppm was sprayed onto eggplants at the 6- to 7-leaf stage using a glass nozzle, and they were left to stand in a greenhouse. The presence or absence of phytotoxicity was investigated after being left to stand for 14 days.
as §6

[3] = tested on: drug resistant strains of spider mites; test: Test Example 13: summary over all drug resistant strains of spider mites; assay type: in vivo, Tetranychus urticae, Panonychus citri; conditions: 9.4 ppm, all strains tested
Experimental: as §3, §4, §5
8 adult females of a drug resistant strain of Panonychus citri were inoculated on mandarin orange leaves placed in a petri dish. […] The life and death of the spider mite were investigated when 10 days had passed after the spraying, and the corrected insecticidal rate was calculated.

Compound | insecticidal rate, Low-susceptible Tetranychus urticae 1 from Nagano Prefecture ([1]; 9.4 ppm) [%] | insecticidal rate, Low-susceptible Tetranychus urticae 2 from Chiba Prefecture ([1]; 9.4 ppm) [%] | insecticidal rate, Low-susceptible Tetranychus urticae 2 from Nagano Prefecture ([1]; 9.4 ppm) [%] | insecticidal rate, Low-susceptible Tetranychus urticae from Aomori Prefecture ([1]; 9.4 ppm) [%] | insecticidal rate, Low-susceptible Tetranychus urticae from Fukuoka Prefecture ([1]; 9.4 ppm) [%] | insecticidal rate, Low-susceptible Tetranyclus urticae 1 from Chiba Prefecture ([1]; 9.4 ppm) [%] | insecticidal rate, Low-susceptible Tetranychus urticae 1 from Nagano Prefecture ([1]; 37.5 ppm) [%] | insecticidal rate, Low-susceptible Tetranychus urticae 2 from Chiba Prefecture ([1]; 37.5 ppm) [%] | insecticidal rate, Low-susceptible Tetranychus urticae 2 from Nagano Prefecture ([1]; 37.5 ppm) [%] | insecticidal rate, Low-susceptible Tetranychus urticae from Aomori Prefecture ([1]; 37.5 ppm) [%] | insecticidal rate, Low-susceptible Tetranychus urticae from Fukuoka Prefecture ([1]; 37.5 ppm) [%] | insecticidal rate, Low-susceptible Tetranyclus urticae 1 from Chiba Prefecture ([1]; 37.5 ppm) [%] | insecticidal rate, Low-susceptible Panonychus citri from Wakayama Prefecture ([2]; 9.4 ppm) [%] | insecticidal rate, Low-susceptible Panonychus citri from Wakayama Prefecture ([2]; 37.5 ppm) [%] | Cucumber; 1.5-leaf stage After 14 days Leaf Phytotoxicity index (cucumber plants; Repetition A) | Cucumber; 1.5-leaf stage After 14 days Leaf Phytotoxicity index (cucumber plants; Repetition B) | Eggplant; 6- to 7-leaf stage After 14 days Leaf Phytotoxicity index (eggplants; Repetition A) | Eggplant; 6- to 7-leaf stage After 14 days Leaf Phytotoxicity index (eggplants; Repetition B) | other results
CCN(Oc1cc(Br)cc(C(F)(F)F)c1)C(=O)NC(C)(C)C(=O)NCC(F)(F)F [Compound 1-1, 2-{3-[3-Bromo-5-(trifluoromethyl)phenoxy]-3-ethylureido}-2-methyl-N-(2,2,2-trifluoroethyl)propanamide] | 100 | 97 | 99 | 93 | 96 | 100 | 100 | 100 | 100 | 100 | 99 | 100 | 99 | 100 | 0 | 0 | 0 | 0 | control value against Tetranychus urticae (Tetranychus urticae): ≥ 90%; insecticidal rate, Low-susceptible Tetranychus urticae from Shizuoka Prefecture ([1]; 9.4 ppm): 96%; insecticidal rate, Low-susceptible Tetranychus urticae from Shizuoka Prefecture ([1]; 37.5 ppm): 100%; phytotoxicity on cucumber plants (cucumber plants; 14 days): no phytotoxicity; phytotoxicity on eggplants (eggplants; 14 days): no phytotoxicity; efficacy against all drug resistant strains of spider mites [3]: ≥ 90
CCN(Oc1ccnc(C(F)(F)F)c1)C(=O)NC(C)(C)C(=O)NCC(F)(F)F [Compound (H)] |  |  |  |  | 45 |  |  |  |  |  | 96 |  | 78 | 96 |  |  | 2 | 2 | 
CCN(Oc1cc(Br)nc(Br)c1)C(=O)NC(C)(C)C(=O)NCC(F)(F)F [Compound (G)] | 78 | 58 | 70 | 66 |  | 53 | 96 | 91 | 88 | 97 |  | 98 | 60 | 95 | 2 | 2 | 2 | 2 | 
CCN(Oc1cc(Cl)cc(Br)c1)C(=O)NC(C)(C)C(=O)NCC(F)(F)F [Compound (D)] | 73 | 72 | 45 |  |  | 32 | 99 | 87 | 96 |  |  | 77 |  |  | 5 | 7 | 3 | 3 | 
